{"source": "patent US3966896A", "about": "“Radioimmunoassay for plasma renin activity” (Mallinckrodt, Inc., priority 1974, dated 1976)", "molecules": {"B1": {"name": "Renin: proteolytic enzyme secreted by juxtaglomerular cells in the kidney (protein, UniProt P00797 67-406, looked up)", "Renin": "LTLGNTTSSVILTNYMDTQYYGEIGIGTPPQTFKVVFDTGSSNVWVPSSKCSRLYTACVYHKLFDASDSSSYKHNGTELTLRYSTGTVSGFLSQDIITVGGITVTQMFGEVTEMPALPFMLAEFDGVVGMGFIEQAIGRVTPIFDNIISQGVLKEDVFSFYYNRDSENSQSLGGQIVLGGSDPQHYEGNFHYINLIKTGVWQIQMKGVSVGSSTLLCEDGCLALVDTGASYISGSTSSIEKLMEALGAKKRLFDYVVKCNEGPTLPDISFHLGGKEYTLTSADYVFQESYSSKKLCTLAIHAMDIPPPTGPTWALGATFIRKFYTEFDRRNNRIGFALAR"}}, "key": {"[1]": {"test_system": "antibody for angiotensin I", "experiment": "Radioimmunoassay standard reactions: competitive binding of labeled and unlabeled angiotensin I to antibody", "set-up": "species or system rabbit", "experimental": "Antiserum (Rabbit) 1.4 μl\nA series of standard prereaction mixtures was prepared by transferring 0.1 ml aliquots of standard unlabeled angiotensin I solutions from the standard vials to a series of reaction vials. Standard prereaction mixtures were prepared using the standard solutions containing 6, 3, 2, 1, 0.8, 0.6, and 0.3 ng/ml unlabeled angiotensin I, respectively. Two blank prereaction mixtures were prepared by adding 0.1 ml pH 9.0 buffer to a reaction vial.\nReaction mixtures were prepared and radioimmunoassay commenced by adding antiserum solution (0.1 ml) to each of the base unknown, generated unknown, standard, and blank prereaction mixtures. Antiserum was withheld from one reaction vial used as a control. The reaction mixtures contained in each vial were then mixed gently on a vortex and incubated for 1 hour at 37°C. After incubation was completed, each reaction vial was taken out of the water bath, the cap removed and an anion exchange resin strip immersed in the contents of the vial. The vial was then recapped and placed on a rotator for 30 minutes at room temperature (21°-23°C.). At the end of 30 minutes, the resin strip was removed from each vial and placed in an empty vial. Radioactivity of both the strip containing the unbound (\"free\") angiotensin I and the supernatant liquid containing the antibody bound (\"bound\") angiotensin I was counted, and the percentage bound angiotensin I was determined from the following relationship: [formula]\nFrom the data of Tables I and II, a graph was prepared in which the percent bound angiotensin I was plotted against nanograms of unlabeled standard angiotensin I contained in the standard reaction solutions for the two sets of standard reactions. FIG. 1 is that graph. […]\nStandard radioimmunoassay reactions were carried out using duplicate blanks and standard solutions respectively containing 0.03, 0.06, 0.08, 0.1, 0.2, 0.3 and 0.6 ng. unlabeled angiotensin I per ml. A control was also run in which no antiserum was added to the prereaction mixture. The procedure of Example 2 was followed, except that the temperature and period of incubation of the radioimmunoassay reaction were varied. The following combinations of time and temperature were utilized for these standard radioimmunoassay reactions: […]"}, "angiotensinogen": {"test_system": "angiotensinogen", "experiment": "Plasma renin activity, as angiotensin I generation rate", "assay_type": "biochemical, human", "experimental": "Blood was drawn from patient three into a tube coated with EDTA and the plasma separated by centrifugation and cooled to 4°C. To one ml. of the cold plasma were added portions of 8-hydroxyquinoline inhibiting solution (10 μl) and dimercaprol inhibiting solution (10 μl). The resulting unknown plasma sample was transferred to a generation vial containing generation buffer solution and mixed.\nThe generation vial was placed in a water bath controlled at 37°C. and generation was carried out for 3 hours. At the end of this time, the generated unknown sample was removed from the water bath, cooled in an ice bath, and three 100 μl aliquots thereof transferred to three reaction vials to provide three generated unknown radioimmunoassay prereaction mixtures containing generated plasma, human serum albumin, sodium azide preservative, HCl, and ^125 I labeled angiotensin I.\nThe renin activity of patient three's plasma was indicated by the angiotensin I generation rate determined from the following relationship: [formula] The factor of 30 is used because the plasma is initially diluted three-fold, and only 0.1 ml of the dilute plasma is used in the radioimmunoassay, while the angiotensin I generation rate is based on 1 ml.\nAnother sample of patient three's plasma was assayed in the manner described in Example 2, except that 2,2-dimethyl glutaric acid was used in place of potassium acid phthalate as the buffering component of the generation mixture. Results of radioactivity counting on the base and generated radioimmunoassay reaction mixtures obtained in the assay of this example are set forth in Table IV.\nFollowing the procedure described in Example 2, a renin activity radioimmunoassay was conducted on the plasma of patient two. The results of radioactive counting and the percent bound antigen for the duplicate standard radioimmunoassay reaction mixture are set forth in Tables V and VI.\nAnother sample of patient two's plasma was assayed in the manner described in Example 4, except that 2,2-dimethylglutaric acid was used in place of potassium acid phthalate as a buffering component of the generation mixture. Results of radioactive counting on the base and generated radioimmunoassay mixtures obtained in the assay of this example are set forth in Table VIII.\nA renin activity radioimmunoassay was conducted on the plasma of patient one. The procedure described in Example 2 was followed except that only one set of reactions was carried out in establishing the standard curve. Results of radioactive counting and the percent bound antigen for the standard radioimmunoassay reaction mixtures are set forth in Table IX.\nAnother sample of patient one's plasma was assayed in the manner described in Example 6, except that 2,2-dimethylglutaric acid was used in place of potassium acid phthalate as the buffering component of the generation mixture. Results of radioactivity counting on the base and generated radioimmunoassay reaction mixtures, together with the angiotensin I content of the ungenerated and generated samples, are set forth in Table XI."}}, "note": "Values joined by “and” are separate entries in the source; they are usually repeats but may differ in a detail not shown here. Equal entries are not always repeated."}
{"molecule": "Angiotensin I: decapeptide formed from angiotensinogen by renin; unlabeled standard in the radioimmunoassay (DRVYIHPFHL; Angiotensin-1; UniProt P01019 25-34, looked up)", "values": [{"measurement": "% Bound labeled angiotensin I", "setting": "[1]; 0.03 ng unlabeled angiotensin I standard, 12°C, 1 hour", "result": 38.3, "unit": "%"}, {"measurement": "% Bound labeled angiotensin I", "setting": "[1]; 0.03 ng unlabeled angiotensin I standard, 12°C, 5 hours", "result": 60.8, "unit": "%"}, {"measurement": "% Bound labeled angiotensin I", "setting": "[1]; 0.03 ng unlabeled angiotensin I standard, 20°C, 1 hour", "result": 46.52, "unit": "%"}, {"measurement": "% Bound labeled angiotensin I", "setting": "[1]; 0.03 ng unlabeled angiotensin I standard, 20°C, 5 hours", "result": 64.22, "unit": "%"}, {"measurement": "% Bound labeled angiotensin I", "setting": "[1]; 0.03 ng unlabeled angiotensin I standard, 37°C, 1 hour", "result": "56.33% and 55.20% and 54.06% and 54.27% and 56.75% and 54.34%"}, {"measurement": "% Bound labeled angiotensin I", "setting": "[1]; 0.06 ng unlabeled angiotensin I standard, 12°C, 1 hour", "result": 36.6, "unit": "%"}, {"measurement": "% Bound labeled angiotensin I", "setting": "[1]; 0.06 ng unlabeled angiotensin I standard, 12°C, 5 hours", "result": 52.9, "unit": "%"}, {"measurement": "% Bound labeled angiotensin I", "setting": "[1]; 0.06 ng unlabeled angiotensin I standard, 20°C, 1 hour", "result": 43.88, "unit": "%"}, {"measurement": "% Bound labeled angiotensin I", "setting": "[1]; 0.06 ng unlabeled angiotensin I standard, 20°C, 5 hours", "result": 62.08, "unit": "%"}, {"measurement": "% Bound labeled angiotensin I", "setting": "[1]; 0.06 ng unlabeled angiotensin I standard, 37°C, 1 hour", "result": "50.77% and 53.62% and 49.30% and 49.16% and 52.76% and 49.86%"}, {"measurement": "% Bound labeled angiotensin I", "setting": "[1]; 0.08 ng unlabeled angiotensin I standard, 12°C, 1 hour", "result": 34.7, "unit": "%"}, {"measurement": "% Bound labeled angiotensin I", "setting": "[1]; 0.08 ng unlabeled angiotensin I standard, 12°C, 5 hours", "result": 50.4, "unit": "%"}, {"measurement": "% Bound labeled angiotensin I", "setting": "[1]; 0.08 ng unlabeled angiotensin I standard, 20°C, 1 hour", "result": 37.90, "unit": "%"}, {"measurement": "% Bound labeled angiotensin I", "setting": "[1]; 0.08 ng unlabeled angiotensin I standard, 20°C, 5 hours", "result": 53.73, "unit": "%"}, {"measurement": "% Bound labeled angiotensin I", "setting": "[1]; 0.08 ng unlabeled angiotensin I standard, 37°C, 1 hour", "result": "49.01% and 48.63% and 48.16% and 48.27% and 48.93% and 45.64%"}, {"measurement": "% Bound labeled angiotensin I", "setting": "[1]; 0.1 ng unlabeled angiotensin I standard, 12°C, 1 hour", "result": 34.3, "unit": "%"}, {"measurement": "% Bound labeled angiotensin I", "setting": "[1]; 0.1 ng unlabeled angiotensin I standard, 12°C, 5 hours", "result": 47.5, "unit": "%"}, {"measurement": "% Bound labeled angiotensin I", "setting": "[1]; 0.1 ng unlabeled angiotensin I standard, 20°C, 1 hour", "result": 40.23, "unit": "%"}, {"measurement": "% Bound labeled angiotensin I", "setting": "[1]; 0.1 ng unlabeled angiotensin I standard, 20°C, 5 hours", "result": 50.27, "unit": "%"}, {"measurement": "% Bound labeled angiotensin I", "setting": "[1]; 0.1 ng unlabeled angiotensin I standard, 37°C, 1 hour", "result": "45.93% and 45.19% and 45.21% and 43.12% and 46.72% and 42.96%"}, {"measurement": "% Bound labeled angiotensin I", "setting": "[1]; 0.2 ng unlabeled angiotensin I standard, 12°C, 1 hour", "result": 27.2, "unit": "%"}, {"measurement": "% Bound labeled angiotensin I", "setting": "[1]; 0.2 ng unlabeled angiotensin I standard, 12°C, 5 hours", "result": 34.1, "unit": "%"}, {"measurement": "% Bound labeled angiotensin I", "setting": "[1]; 0.2 ng unlabeled angiotensin I standard, 20°C, 1 hour", "result": 31.21, "unit": "%"}, {"measurement": "% Bound labeled angiotensin I", "setting": "[1]; 0.2 ng unlabeled angiotensin I standard, 20°C, 5 hours", "result": 32.23, "unit": "%"}, {"measurement": "% Bound labeled angiotensin I", "setting": "[1]; 0.2 ng unlabeled angiotensin I standard, 37°C, 1 hour", "result": "35.75% and 35.05% and 29.50% and 28.39% and 34.97% and 30.79%"}, {"measurement": "% Bound labeled angiotensin I", "setting": "[1]; 0.3 ng unlabeled angiotensin I standard, 12°C, 1 hour", "result": 25.8, "unit": "%"}, {"measurement": "% Bound labeled angiotensin I", "setting": "[1]; 0.3 ng unlabeled angiotensin I standard, 12°C, 5 hours", "result": 24.4, "unit": "%"}, {"measurement": "% Bound labeled angiotensin I", "setting": "[1]; 0.3 ng unlabeled angiotensin I standard, 20°C, 1 hour", "result": 23.71, "unit": "%"}, {"measurement": "% Bound labeled angiotensin I", "setting": "[1]; 0.3 ng unlabeled angiotensin I standard, 20°C, 5 hours", "result": 25.25, "unit": "%"}, {"measurement": "% Bound labeled angiotensin I", "setting": "[1]; 0.3 ng unlabeled angiotensin I standard, 37°C, 1 hour", "result": "29.47% and 31.32% and 28.06% and 26.30% and 27.55% and 27.52%"}, {"measurement": "% Bound labeled angiotensin I", "setting": "[1]; 0.6 ng unlabeled angiotensin I standard, 12°C, 1 hour", "result": 15.9, "unit": "%"}, {"measurement": "% Bound labeled angiotensin I", "setting": "[1]; 0.6 ng unlabeled angiotensin I standard, 12°C, 5 hours", "result": 16.6, "unit": "%"}, {"measurement": "% Bound labeled angiotensin I", "setting": "[1]; 0.6 ng unlabeled angiotensin I standard, 20°C, 1 hour", "result": 15.54, "unit": "%"}, {"measurement": "% Bound labeled angiotensin I", "setting": "[1]; 0.6 ng unlabeled angiotensin I standard, 20°C, 5 hours", "result": 15.0, "unit": "%"}, {"measurement": "% Bound labeled angiotensin I", "setting": "[1]; 0.6 ng unlabeled angiotensin I standard, 37°C, 1 hour", "result": "17.21% and 16.50% and 17.98% and 17.40% and 17.61% and 16.72%"}]}
{"molecule": "B1", "values": [{"measurement": "Renin activity", "setting": "angiotensinogen; patient one plasma, glutarate generation buffer", "result": 1.31, "unit": "ng/mL/h"}, {"measurement": "Renin activity", "setting": "angiotensinogen; patient one plasma, phthalate generation buffer", "result": 0.849, "unit": "ng/mL/h"}, {"measurement": "Renin activity", "setting": "angiotensinogen; patient three plasma, glutarate generation buffer", "result": 0.7, "unit": "ng angiotensin I/ml/hr"}, {"measurement": "Renin activity", "setting": "angiotensinogen; patient three plasma, phthalate generation buffer", "result": 0.42, "unit": "ng/mL/h"}, {"measurement": "Renin activity", "setting": "angiotensinogen; patient two plasma, glutarate generation buffer", "result": 2.91, "unit": "ng/mL/h"}, {"measurement": "Renin activity", "setting": "angiotensinogen; patient two plasma, phthalate generation buffer", "result": 1.41, "unit": "ng Angiotensin I/ml/hr"}]}
